{"source": "patent US6537980B1", "about": "“Vitamin D analogues and their pharmaceutical use” (Leo Pharmaceutical Products Ltd., priority 1999, dated 2003)", "key": {"hairless guinea pigs": {"test_system": "hairless guinea pigs", "experiment": "Skin irritation, occlusive patch test in hairless guinea pigs", "type": "in vivo, guinea pig", "design": "key to Skin irritation score: 0: Substances of no irritation; +: Substances of doubtful or very low irritancy compared to calcitriol; ++: Substances of low irritancy compared to calcitriol; +++: Substances with irritances in the same range as calcitriol; ++++: Substances of more irritancy than calcitriol; +++++: Very irritative substances compared to calcftriol", "conditions": "for Skin irritation score: occlusive patch 48 hours, 500, 50 and 5 μg/ml, clinical grading, LDPI, erythema", "method": "Skin irritation was assessed in hairless guinea pigs. Randomised occlusive patch testing for 48 hours was used. Each analogue was tested at three dose levels (500 μg/ml, 50 μg/ml, and 5 μg/ml) and a placebo solution was also included. Assessment of skin irritation was blinded and based upon clinical grading and objective measurement of cutaneous blood flow (laser Doppler perfusion imaging, LDPI) and erythema (Minolta ChromaMeter). Furthermore, epidermal thickness as an indication of epidermal hyperplasia was measured.\nThe irritancy scores were as defined below:\n0 Substances of no irritation\n+ Substances of doubtful or very low irritancy compared to calcitriol\n++ Substances of low irritancy compared to calcitriol\n+++ Substances with irritances in the same range as calcitriol\n++++ Substances of more irritancy than calcitriol\n+++++ Very irritative substances compared to calcftriol"}, "[1]": {"test_system": "HaCaT human skin keratinocyte cell line", "experiment": "HaCaT antiproliferative assay measuring 3H-thymidine uptake", "type": "cell-based", "conditions": "for HaCaT rel.: relative to 1,25(OH)2D3, ratio IC50 of 1,25(OH)2D3 / IC50 of compound, 3H-thymidine incorporation, >1 = more active", "text": "An assay for the rating of test compounds for antiproliterative activity in skin cells, e.g. antipsoriatic effect, is the in vitro assay using HaCaT, a spontaneously immortalised, non-tumorigenic human skin keratinocyte cell line (Mørk Hansen, C. et al., J. Invest. Dermatol 1, 44-48 (1996)), measuring ^3H -thymidine uptake."}, "rats": {"test_system": "rats", "experiment": "Calcemic activity in rats in vivo", "design": "species or system rat", "conditions": "for Calc. rel.: calcemic activity in rats relative to 1,25(OH)2D3, >1 = more active", "text": "Generally, the classical effects of 1,25(OH)2D3 on the calcium balance in the organism, including calcemic and calciuric activities, are unwanted in the vitamin D analogues of the present invention, in which selectivity for e.g. inhibition of the proliferation of certain cells, absence of calcemic effects and skin irritation is desired."}, "vitamin D receptor": {"target": "T1, vitamin D receptor (Homo sapiens, UniProt P11473)", "T1 sequence (P11473 1-427)": "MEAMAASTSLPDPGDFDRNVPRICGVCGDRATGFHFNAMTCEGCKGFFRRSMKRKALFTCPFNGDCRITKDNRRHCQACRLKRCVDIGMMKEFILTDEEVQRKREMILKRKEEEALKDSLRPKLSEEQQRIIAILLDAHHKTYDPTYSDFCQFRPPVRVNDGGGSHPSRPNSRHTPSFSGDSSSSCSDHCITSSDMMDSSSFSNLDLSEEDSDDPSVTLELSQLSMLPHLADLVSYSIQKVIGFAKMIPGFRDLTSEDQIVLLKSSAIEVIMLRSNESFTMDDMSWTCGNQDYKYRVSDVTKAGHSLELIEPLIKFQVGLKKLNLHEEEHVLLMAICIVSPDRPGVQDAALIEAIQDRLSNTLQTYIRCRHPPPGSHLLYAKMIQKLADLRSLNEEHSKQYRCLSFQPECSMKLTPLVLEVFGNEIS", "experiment": "Binding to the vitamin D receptor in vitro, relative to Calcitriol", "conditions": "relative to 1,25(OH)2D3; ratio IC50 of 1,25(OH)2D3 / IC50 of compound; >1 = more active"}}, "note": "“Also recorded” adds a separate entry of the source."}
{"molecule": "C=C1/C(=C\\C=C2/CCC[C@]3(C)[C@@H]([C@H](C)/C=C/[C@@H](O)C4CC4)CC[C@@H]23)C[C@@H](O)C[C@@H]1O", "note": "[Calcipotriol, reference compound]", "values": [{"measurement": "Skin irritation score", "setting": "hairless guinea pigs", "result": "+++"}, {"measurement": "HaCaT rel.", "setting": "[1]", "result": 2}, {"measurement": "Calc. rel.", "setting": "rats", "result": 0.005}]}
{"molecule": "C=C1/C(=C\\C=C2/CCC[C@]3(C)[C@@H]([C@H](C)CCCC(C)(C)O)CC[C@@H]23)C[C@@H](O)C[C@@H]1O", "note": "[Calcitriol, 1α,25-dihydroxy-vitamin D3, reference compound]", "values": [{"measurement": "Skin irritation score", "setting": "hairless guinea pigs", "result": "+++"}, {"measurement": "HaCaT rel.", "setting": "[1]", "result": 1}, {"measurement": "Calc. rel.", "setting": "rats", "result": 1}]}
{"molecule": "C=C1C(=CC=C2CCCC3(C)C2CCC3C(C)COCc2cccc(C(C)(C)O)c2)CC(O)CC1O", "note": "[Compound 100, 1(S),3(R)-Dihydroxy-20(R)-[((3-(2-hydroxy-2-propyl)-phenyl)-methoxy)-methyl]-9,10-seco-pregna-5(Z),7(E),10(19)-triene]", "values": [{"measurement": "skin irritation (in words)", "setting": "hairless guinea pigs; compared with prior art compounds", "result": "considerably less skin irritation than compounds of the prior art"}, {"measurement": "Skin irritation score", "setting": "hairless guinea pigs", "result": "+"}, {"measurement": "antiproliferative activity in skin cells (in words)", "setting": "[1]; HaCaT, compared with Calcitriol / 1,25(OH)2D3", "result": "same potency as the compound Calcitriol"}, {"measurement": "HaCaT rel.", "setting": "[1]", "result": 1}, {"measurement": "Calc. rel.", "setting": "rats", "result": 0.001}, {"measurement": "calcemic activity (in words)", "setting": "rats; rats in vivo, compared with prior art compounds", "result": "very low calcemic activity; also recorded: negligible"}, {"measurement": "Receptor binding rel.", "setting": "vitamin D receptor", "result": 0.01}]}
